Test [1] deals with Platelet-derived growth factor receptor beta (Homo sapiens, UniProt P09619). Put plainly: Selectivity interaction (KinomeScan (DiscoverX)) EUB0000634a PDGFRB. The following applies: at 1 µM.
For test [2], the target named is Mast/stem cell growth factor receptor Kit (Homo sapiens, UniProt P10721). Put plainly: Selectivity interaction (KinomeScan (DiscoverX)) EUB0000634a KIT. The following applies: at 1 µM.
Test [3] deals with Mitogen-activated protein kinase 9 (Homo sapiens, UniProt P45984). The experiment in a line: Selectivity interaction (KinomeScan (DiscoverX)) EUB0000634a MAPK9. The following applies: at 1 µM.
Test [4] addresses Receptor-interacting serine/threonine-protein kinase 1 (Homo sapiens) (UniProt Q13546). The experiment in a line: Selectivity interaction (KinomeScan (DiscoverX)) EUB0000339a RIPK1. To be noted: at 1 µM.
The target of test [5] is T1, Myosin-IIIb (Homo sapiens) (UniProt Q8WXR4).
T1 sequence (whole entry): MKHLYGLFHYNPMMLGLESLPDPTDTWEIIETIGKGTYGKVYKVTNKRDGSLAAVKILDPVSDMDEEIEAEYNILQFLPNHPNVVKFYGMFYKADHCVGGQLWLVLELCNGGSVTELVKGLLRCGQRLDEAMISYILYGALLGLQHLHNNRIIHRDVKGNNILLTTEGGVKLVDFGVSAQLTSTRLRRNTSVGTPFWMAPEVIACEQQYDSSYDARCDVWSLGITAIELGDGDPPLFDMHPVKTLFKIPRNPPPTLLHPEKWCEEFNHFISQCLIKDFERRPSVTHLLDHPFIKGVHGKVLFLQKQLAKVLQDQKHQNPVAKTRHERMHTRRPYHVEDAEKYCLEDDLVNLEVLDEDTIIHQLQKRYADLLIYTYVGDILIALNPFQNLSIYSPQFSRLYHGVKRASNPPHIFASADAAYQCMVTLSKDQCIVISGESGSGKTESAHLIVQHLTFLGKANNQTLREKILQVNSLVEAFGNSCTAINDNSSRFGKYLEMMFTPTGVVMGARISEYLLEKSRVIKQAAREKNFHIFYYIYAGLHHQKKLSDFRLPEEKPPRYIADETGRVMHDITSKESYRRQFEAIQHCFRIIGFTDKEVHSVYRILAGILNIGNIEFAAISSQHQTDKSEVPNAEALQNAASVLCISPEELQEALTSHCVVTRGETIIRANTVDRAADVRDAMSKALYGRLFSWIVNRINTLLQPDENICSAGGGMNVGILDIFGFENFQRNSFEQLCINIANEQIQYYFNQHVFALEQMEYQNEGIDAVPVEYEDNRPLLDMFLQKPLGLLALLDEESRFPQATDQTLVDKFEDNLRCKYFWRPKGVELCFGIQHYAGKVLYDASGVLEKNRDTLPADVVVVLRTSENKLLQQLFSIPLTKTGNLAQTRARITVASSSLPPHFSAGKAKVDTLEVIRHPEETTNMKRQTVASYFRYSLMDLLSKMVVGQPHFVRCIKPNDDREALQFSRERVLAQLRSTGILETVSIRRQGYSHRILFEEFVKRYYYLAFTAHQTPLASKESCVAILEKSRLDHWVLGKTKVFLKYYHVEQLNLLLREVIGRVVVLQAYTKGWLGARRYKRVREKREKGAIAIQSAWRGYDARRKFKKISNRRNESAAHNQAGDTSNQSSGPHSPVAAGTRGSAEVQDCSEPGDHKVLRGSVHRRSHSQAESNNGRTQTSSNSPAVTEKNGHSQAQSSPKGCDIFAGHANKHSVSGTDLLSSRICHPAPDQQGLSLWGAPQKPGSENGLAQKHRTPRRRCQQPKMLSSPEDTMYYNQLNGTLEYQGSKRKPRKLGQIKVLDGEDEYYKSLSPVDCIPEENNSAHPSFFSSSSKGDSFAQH
The experiment in a line: Selectivity interaction (KinomeScan (DiscoverX)) EUB0000339a MYO3B. To be noted: at 1 µM.

The target in test [6] is Serine/threonine-protein kinase Nek5 (Homo sapiens) (UniProt Q6P3R8). The experiment in a line: Selectivity interaction (KinomeScan (DiscoverX)) EUB0000339a NEK5. To be noted: at 1 µM.
Test [7] concerns the target Voltage-dependent L-type calcium channel subunit alpha-1S (Homo sapiens) (UniProt Q13698). Put plainly: Selectivity interaction (Enzyme panel (Eurofins-Cerep)) EUB0000263b CACNA1S. The following applies: at 10 µM.
For test [8], the target named is T2, Homeodomain-interacting protein kinase 4 (Homo sapiens) (UniProt Q8NE63).
T2 sequence (whole entry): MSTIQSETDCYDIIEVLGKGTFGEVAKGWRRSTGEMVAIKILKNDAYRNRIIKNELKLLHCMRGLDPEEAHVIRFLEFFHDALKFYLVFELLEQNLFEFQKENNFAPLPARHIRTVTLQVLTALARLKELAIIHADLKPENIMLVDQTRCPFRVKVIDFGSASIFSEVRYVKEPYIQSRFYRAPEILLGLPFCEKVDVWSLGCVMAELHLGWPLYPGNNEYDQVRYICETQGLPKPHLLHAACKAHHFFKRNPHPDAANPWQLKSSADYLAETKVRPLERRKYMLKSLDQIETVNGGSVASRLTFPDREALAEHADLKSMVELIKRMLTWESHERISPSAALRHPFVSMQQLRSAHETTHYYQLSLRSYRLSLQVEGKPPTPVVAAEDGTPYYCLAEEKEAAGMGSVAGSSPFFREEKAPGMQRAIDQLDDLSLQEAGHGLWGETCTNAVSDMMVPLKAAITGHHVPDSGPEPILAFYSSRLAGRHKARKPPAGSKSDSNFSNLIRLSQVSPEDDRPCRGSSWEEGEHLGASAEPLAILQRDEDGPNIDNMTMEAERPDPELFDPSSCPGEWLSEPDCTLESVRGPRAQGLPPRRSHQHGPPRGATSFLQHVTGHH
The experiment in a line: Selectivity interaction (KinomeScan (DiscoverX)) EUB0000263b HIPK4. The following applies: at 1 µM.

In test [9] the target is T3, Mitogen-activated protein kinase 12 (Homo sapiens) (UniProt P53778).
T3 sequence (whole entry): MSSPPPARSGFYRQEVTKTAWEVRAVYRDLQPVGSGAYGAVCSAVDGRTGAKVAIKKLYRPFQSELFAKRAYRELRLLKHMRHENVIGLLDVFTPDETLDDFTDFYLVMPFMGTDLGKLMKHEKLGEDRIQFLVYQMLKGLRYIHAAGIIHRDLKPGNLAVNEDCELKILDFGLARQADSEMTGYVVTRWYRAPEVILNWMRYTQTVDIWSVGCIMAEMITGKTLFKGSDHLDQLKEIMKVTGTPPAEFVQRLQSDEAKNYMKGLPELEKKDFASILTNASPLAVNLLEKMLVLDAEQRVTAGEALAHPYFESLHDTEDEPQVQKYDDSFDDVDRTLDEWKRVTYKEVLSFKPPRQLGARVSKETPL
Put plainly: Selectivity interaction (KinomeScan (DiscoverX)) EUB0000263b MAPK12. The following applies: at 1 µM.

Test [10] deals with Voltage-dependent L-type calcium channel subunit alpha-1S (Homo sapiens) (UniProt Q13698). Put plainly: Selectivity interaction (CEREP panel (Eurofins)) EUB0000263b CACNA1S. The following applies: at 10 µM.
Test [11] addresses SRSF protein kinase 2 (Homo sapiens) (UniProt P78362). The experiment in a line: Selectivity interaction (KinomeScan (DiscoverX)) EUB0000332a SRPK2. The following applies: at 1 µM.
Test [12] addresses Megakaryocyte-associated tyrosine-protein kinase (Homo sapiens) (UniProt P42679). The experiment in a line: Selectivity interaction (KinomeScan (DiscoverX)) EUB0000332a MATK. To be noted: at 1 µM.
The target in test [13] is T4, G protein-coupled receptor kinase 3 (Homo sapiens) (UniProt P35626).
T4 sequence (whole entry): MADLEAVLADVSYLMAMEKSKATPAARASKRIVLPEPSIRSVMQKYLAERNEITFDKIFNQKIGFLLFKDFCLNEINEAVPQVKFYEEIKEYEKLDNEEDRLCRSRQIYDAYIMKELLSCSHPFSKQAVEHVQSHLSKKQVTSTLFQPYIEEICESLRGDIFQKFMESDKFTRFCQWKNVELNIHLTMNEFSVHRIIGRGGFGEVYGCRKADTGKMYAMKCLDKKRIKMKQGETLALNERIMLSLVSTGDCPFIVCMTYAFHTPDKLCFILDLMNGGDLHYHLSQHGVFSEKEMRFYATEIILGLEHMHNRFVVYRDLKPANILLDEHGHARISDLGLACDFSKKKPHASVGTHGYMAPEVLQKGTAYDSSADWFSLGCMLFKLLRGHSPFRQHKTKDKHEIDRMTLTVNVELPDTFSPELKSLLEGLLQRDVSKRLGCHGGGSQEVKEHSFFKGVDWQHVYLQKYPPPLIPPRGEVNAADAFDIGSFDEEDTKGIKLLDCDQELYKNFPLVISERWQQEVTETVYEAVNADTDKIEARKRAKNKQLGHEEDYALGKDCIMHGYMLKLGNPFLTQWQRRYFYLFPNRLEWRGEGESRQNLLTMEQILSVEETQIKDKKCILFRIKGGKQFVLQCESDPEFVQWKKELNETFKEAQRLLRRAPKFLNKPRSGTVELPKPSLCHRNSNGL
The experiment in a line: Selectivity interaction (KinomeScan (DiscoverX)) EUB0000332a ADRBK2. The following applies: at 1 µM.

In test [14] the target is Maternal embryonic leucine zipper kinase (Homo sapiens) (UniProt Q14680). The experiment in a line: Selectivity interaction (KinomeScan (DiscoverX)) EUB0000332a MELK. The following applies: at 1 µM.
Test [15] addresses Ephrin type-A receptor 4 (Homo sapiens) (UniProt P54764). The experiment in a line: Selectivity interaction (KinomeScan (DiscoverX)) EUB0000736a EPHA4. The following applies: at 1 µM.
Test [16] has as its target Ephrin type-A receptor 6 (Homo sapiens) (UniProt Q9UF33). Put plainly: Selectivity interaction (KinomeScan (DiscoverX)) EUB0000736a EPHA6. The following applies: at 1 µM.
The target in test [17] is Ephrin type-B receptor 3 (Homo sapiens) (UniProt P54753). Put plainly: Selectivity interaction (KinomeScan (DiscoverX)) EUB0000736a EPHB3. To be noted: at 1 µM.
For test [18], the target named is Dual specificity tyrosine-phosphorylation-regulated kinase 1B (Homo sapiens, UniProt Q9Y463). Put plainly: Selectivity interaction (KinomeScan (DiscoverX)) EUB0000736a DYRK1B. The following applies: at 1 µM.
Test [19] has as its system Tyrosine-protein kinase ABL1 (Homo sapiens), P00519 [M351T]. The experiment in a line: (§1) Selectivity interaction (KinomeScan (DiscoverX)) EUB0000736a ABL1. The following applies: at 1 µM.
For test [20], the system named is Tyrosine-protein kinase ABL1 (Homo sapiens), P00519 [T315I]. The description is as §1. To be noted: at 10 µM.
The target of another test is Histamine H1 receptor (Homo sapiens, UniProt P35367). The experiment in a line: Selectivity interaction (GPCR panel (PDSP screen)) EUB0000350a HRH1. The following applies: at 10 µM.

Sequence of Voltage-dependent L-type calcium channel subunit alpha-1S (Homo sapiens) (Q13698 whole entry): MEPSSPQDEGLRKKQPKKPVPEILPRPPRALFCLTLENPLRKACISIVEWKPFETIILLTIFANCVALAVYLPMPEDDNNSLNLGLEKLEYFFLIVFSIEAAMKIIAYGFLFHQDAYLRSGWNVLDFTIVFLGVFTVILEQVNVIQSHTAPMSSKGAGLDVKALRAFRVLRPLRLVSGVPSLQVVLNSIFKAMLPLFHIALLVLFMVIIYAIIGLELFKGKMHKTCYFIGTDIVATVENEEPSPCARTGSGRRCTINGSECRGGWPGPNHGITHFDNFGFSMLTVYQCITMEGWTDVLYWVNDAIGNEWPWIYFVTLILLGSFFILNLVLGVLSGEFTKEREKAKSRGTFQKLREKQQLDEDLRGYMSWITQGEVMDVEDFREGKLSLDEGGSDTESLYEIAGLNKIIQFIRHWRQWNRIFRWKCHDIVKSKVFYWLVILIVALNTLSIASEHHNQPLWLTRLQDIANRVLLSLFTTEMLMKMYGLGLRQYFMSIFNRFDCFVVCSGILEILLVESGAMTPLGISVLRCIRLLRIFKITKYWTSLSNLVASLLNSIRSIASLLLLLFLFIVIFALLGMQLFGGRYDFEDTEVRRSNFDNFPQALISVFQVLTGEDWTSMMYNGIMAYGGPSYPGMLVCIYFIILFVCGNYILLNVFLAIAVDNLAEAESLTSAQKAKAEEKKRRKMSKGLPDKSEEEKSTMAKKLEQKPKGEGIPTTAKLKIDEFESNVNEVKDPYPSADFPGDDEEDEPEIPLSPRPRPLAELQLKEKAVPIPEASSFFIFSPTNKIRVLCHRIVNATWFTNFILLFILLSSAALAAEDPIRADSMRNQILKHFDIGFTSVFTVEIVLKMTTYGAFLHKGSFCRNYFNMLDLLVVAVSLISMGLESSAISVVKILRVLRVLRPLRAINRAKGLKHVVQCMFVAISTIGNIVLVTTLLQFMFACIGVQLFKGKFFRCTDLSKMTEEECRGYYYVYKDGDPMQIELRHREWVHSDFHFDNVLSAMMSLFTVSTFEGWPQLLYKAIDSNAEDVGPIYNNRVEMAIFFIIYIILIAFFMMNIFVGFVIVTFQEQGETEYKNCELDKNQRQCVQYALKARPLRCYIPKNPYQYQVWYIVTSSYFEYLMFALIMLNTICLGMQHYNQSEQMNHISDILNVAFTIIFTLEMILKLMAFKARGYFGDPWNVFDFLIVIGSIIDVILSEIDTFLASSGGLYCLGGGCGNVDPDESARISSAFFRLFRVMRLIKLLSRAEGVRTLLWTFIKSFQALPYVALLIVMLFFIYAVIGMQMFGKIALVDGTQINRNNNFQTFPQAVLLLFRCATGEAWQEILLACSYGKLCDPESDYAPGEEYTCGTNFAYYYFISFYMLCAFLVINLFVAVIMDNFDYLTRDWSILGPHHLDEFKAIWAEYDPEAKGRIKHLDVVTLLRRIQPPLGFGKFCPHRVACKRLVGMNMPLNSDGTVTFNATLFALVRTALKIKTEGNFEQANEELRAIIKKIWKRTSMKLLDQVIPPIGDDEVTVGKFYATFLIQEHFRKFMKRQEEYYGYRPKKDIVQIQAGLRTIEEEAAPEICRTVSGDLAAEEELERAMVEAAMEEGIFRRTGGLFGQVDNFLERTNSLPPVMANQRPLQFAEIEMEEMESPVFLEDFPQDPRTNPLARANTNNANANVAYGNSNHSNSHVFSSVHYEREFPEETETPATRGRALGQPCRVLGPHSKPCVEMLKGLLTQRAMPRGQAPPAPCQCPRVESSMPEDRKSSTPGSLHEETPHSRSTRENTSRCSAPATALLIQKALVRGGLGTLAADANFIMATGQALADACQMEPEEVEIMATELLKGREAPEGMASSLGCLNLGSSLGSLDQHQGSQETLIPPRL
Sequence of Ephrin type-A receptor 4 (Homo sapiens) (P54764 whole entry): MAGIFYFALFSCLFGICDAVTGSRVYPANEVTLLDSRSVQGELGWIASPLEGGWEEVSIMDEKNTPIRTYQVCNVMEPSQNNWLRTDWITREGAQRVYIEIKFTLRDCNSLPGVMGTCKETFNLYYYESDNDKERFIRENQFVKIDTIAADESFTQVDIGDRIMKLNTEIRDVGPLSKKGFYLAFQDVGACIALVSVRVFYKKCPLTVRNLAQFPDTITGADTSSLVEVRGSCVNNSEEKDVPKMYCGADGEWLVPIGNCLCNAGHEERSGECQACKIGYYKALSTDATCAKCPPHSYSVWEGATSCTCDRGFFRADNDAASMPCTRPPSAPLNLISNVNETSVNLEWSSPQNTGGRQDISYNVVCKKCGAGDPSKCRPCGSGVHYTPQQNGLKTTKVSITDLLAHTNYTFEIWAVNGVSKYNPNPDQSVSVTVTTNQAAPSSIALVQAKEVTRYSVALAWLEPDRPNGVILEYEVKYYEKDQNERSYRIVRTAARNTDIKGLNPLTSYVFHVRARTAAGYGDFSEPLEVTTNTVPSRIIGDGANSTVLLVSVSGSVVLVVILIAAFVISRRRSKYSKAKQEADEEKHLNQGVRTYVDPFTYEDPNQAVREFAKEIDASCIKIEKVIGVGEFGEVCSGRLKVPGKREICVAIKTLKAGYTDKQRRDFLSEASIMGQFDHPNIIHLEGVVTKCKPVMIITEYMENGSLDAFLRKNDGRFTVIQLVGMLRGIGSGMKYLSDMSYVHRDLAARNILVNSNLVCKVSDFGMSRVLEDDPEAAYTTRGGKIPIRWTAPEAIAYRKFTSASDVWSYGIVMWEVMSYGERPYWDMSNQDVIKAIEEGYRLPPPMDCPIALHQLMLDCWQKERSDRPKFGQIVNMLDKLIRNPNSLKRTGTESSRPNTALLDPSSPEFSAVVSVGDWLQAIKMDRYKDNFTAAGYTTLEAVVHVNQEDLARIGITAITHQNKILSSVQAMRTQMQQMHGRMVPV
Sequence of Platelet-derived growth factor receptor beta (P09619 whole entry): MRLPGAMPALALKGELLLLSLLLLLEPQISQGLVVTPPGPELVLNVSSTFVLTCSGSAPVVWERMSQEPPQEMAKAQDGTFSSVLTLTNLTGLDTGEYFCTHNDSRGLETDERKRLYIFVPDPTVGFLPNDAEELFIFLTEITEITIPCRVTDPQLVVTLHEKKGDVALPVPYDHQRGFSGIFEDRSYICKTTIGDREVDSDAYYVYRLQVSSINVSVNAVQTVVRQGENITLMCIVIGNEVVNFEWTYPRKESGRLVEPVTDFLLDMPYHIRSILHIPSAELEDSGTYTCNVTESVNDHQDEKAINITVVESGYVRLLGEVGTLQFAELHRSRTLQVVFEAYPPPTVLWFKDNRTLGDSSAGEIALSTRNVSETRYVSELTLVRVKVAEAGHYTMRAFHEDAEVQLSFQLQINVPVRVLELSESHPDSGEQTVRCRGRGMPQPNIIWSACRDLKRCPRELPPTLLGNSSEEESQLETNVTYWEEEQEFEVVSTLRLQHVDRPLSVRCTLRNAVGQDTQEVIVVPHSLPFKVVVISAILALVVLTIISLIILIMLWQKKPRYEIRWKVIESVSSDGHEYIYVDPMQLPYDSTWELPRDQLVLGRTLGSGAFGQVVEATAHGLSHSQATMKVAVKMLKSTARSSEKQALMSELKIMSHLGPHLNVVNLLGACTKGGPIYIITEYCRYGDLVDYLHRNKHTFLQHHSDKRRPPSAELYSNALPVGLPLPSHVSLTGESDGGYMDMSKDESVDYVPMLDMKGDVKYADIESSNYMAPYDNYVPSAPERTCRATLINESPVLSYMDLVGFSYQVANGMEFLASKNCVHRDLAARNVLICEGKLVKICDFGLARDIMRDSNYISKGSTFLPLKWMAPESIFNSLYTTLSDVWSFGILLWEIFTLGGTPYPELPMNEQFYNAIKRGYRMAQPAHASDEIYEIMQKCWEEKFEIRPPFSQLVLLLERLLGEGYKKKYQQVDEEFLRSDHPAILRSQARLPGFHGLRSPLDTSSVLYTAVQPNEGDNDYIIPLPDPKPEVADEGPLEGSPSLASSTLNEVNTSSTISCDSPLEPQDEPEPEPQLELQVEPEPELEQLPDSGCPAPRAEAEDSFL
Sequence of Mast/stem cell growth factor receptor Kit (P10721 whole entry): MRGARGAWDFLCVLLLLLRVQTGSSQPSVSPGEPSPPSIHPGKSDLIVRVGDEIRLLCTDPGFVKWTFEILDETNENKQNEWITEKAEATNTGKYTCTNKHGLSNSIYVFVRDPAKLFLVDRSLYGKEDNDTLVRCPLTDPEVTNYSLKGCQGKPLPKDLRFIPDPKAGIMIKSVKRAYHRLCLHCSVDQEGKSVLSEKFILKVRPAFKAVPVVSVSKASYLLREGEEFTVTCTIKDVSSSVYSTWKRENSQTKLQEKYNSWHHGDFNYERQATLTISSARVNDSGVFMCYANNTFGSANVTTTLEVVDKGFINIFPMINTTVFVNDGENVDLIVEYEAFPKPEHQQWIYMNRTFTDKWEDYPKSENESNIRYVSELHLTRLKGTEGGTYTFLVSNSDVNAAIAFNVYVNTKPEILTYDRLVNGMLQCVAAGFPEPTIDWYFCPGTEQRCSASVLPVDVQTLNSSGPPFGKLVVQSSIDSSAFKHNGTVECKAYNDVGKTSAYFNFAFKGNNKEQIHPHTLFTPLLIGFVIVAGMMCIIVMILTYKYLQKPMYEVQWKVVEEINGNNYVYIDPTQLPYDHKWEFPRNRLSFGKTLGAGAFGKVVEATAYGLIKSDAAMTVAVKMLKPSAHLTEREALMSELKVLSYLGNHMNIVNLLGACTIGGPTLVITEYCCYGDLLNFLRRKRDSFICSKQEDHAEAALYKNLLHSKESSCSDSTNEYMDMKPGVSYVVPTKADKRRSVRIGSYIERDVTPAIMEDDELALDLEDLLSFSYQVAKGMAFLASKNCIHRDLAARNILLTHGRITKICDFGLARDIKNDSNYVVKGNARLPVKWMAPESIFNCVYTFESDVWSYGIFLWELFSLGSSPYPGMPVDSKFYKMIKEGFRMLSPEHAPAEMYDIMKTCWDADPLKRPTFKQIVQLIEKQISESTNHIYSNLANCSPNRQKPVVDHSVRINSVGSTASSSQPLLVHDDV

With `COc1ccc(Oc2cc(NCCC(F)(F)F)c3ncc(-c4ccc(C(=O)NC5CC5)c(C)c4)n3n2)c(F)c1F`, the % of control amounted to 0% in test [1], 2% in test [2] and 4% in test [3].
Turning to `CCCOc1ccc([C@@H]2[C@@H](C(=O)O)[C@H](c3ccc4c(c3)OCO4)CN2CC(=O)Nc2c(CC)cccc2CC)cc1`, the % of control came to 55% in test [4], 52% in [5] and 55% in test [6].
As for `CO[C@H]1CC[C@H](CNc2ccc(S(=O)(=O)NC(=O)c3ccc(N4CCN(CC5=C(c6ccc(Cl)cc6)CC(C)(C)CC5)CC4)cc3Oc3cnc4[nH]ccc4c3)cc2[N+](=O)[O-])CC1`, the % of inhibition in test [7] and in test [10] was 63.2% each time. For the same compound, the % of control in [8] is 4.4%; in [9] it was 47%.
Regarding `CSc1cccnc1N1CCN(Cc2nc3ccccc3[nH]2)CC1`, the % of control in test [11] stood at 59%; in test [12], 45%; in [13], 31%; in test [14], 46%.
In the case of `Cn1cncc1[C@@](O)(COc1ccc(C#N)cc1-c1ccc(OC(F)(F)F)cc1)c1ccc(C#N)cc1`, the % of control in test [15] worked out at 12%; in test [16], 3%; in [17], 6%; in [18] it was 38%; in test [19], 6.2%; in [20], 6.1%.
As to `CCCOc1ccc([C@H]2[C@H](C(=O)O)[C@@H](c3ccc4c(c3)OCO4)CN2CC(=O)Nc2c(CC)cccc2CC)cc1`, the % of inhibition on Histamine H1 receptor is 36%.
